Consider five molecules from article PMC8305652, “Copper(II) Complexes Containing Natural Flavonoid Pomiferin Show Considerable In Vitro Cytotoxicity and Anti-inflammatory Effects” (International Journal of Molecular Sciences, 2021).

For one test, the system named is A2780 cell line. The arrangement: method as in PMID 32578983. Particulars: 24 h incubation; cited from earlier work.
The subject of the next test is THP-1 cells. Description: intracellular production of reactive oxygen species, DCFH2-DA. Format: cell-based, human. Particulars: THP-1, 200 nM, 23.5 h; pyocyanin 100 μM as radical-forming control. How it is done:
THP-1 cells were used for the determination of the potential of tested compounds to initiate the intracellular ROS production, as was described previously with some minor modifications. Cells in serum-free RPMI 1640 medium without phenol red were seeded into black 96-well plates (5 × 10^4 cells/100 µL/well). After 2 h of incubation, the cells were treated with copper(II) complexes 1–5 at a concentration of 200 nM, and pyocyanin at a final concentration of 100 μM was added into control group to trigger production of reactive oxygen species (ROS), respectively. After the incubation at 37 °C for either 1.5 h or 23.5 h, dichlorofluorescin diacetate (DCFH2-DA) (5 μg/mL) was added and cells were kept under the same conditions hereafter. Thirty minutes later, fluorometric measurement of the fluorescent product DCF was conducted using a Tecan Infinite F200 microplate reader (Tecan, Männedorf, Switzerland) with λ(ex./em.) = 485/520 nm.

The subject of test [1] is caspase 3 (Casp-3) in THP-1 cells. Description: Western blotting of apoptosis-related proteins. Format: cell-based, human. Particulars: THP-1, complexes 4 µM, 24 h, Western blot. The protocol:
In addition to the above-mentioned methods, the Western blotting method was used to shed light on the mechanisms associated with caspase 3 activation in the THP-1 cells. Two and a half milliliters of floating THP-1 monocytes resuspended in a serum-free RPMI 1640 medium were seeded into 6-well plates at the concentration of 10^6 cells/mL. Two hours later, complexes 3 and 5 were added at the concentration level of 4 µM. After 24 h incubation, the cells were collected by centrifugation (3000 g/5 min/4 °C), washed by cold PBS and resuspended in an ice-cold lysis buffer (50 mM Tris-HCl pH 7.5, 1 mM EGTA, 1 mM EDTA, 1 mM sodium orthovanadate, 50 mM sodium fluoride, 5 mM sodium pyrophosphate, 270 mM sucrose) with Roche cOmplete protease inhibitors (Roche Diagnostics, Basel, Switzerland). The cell lysates were centrifuged at 3000 g/5 min/4 °C and supernatants were mixed with a 5x Laemmli buffer [containing 250 mM Tris-HCl pH 6.8, 10% (w/v) SDS, 30% (v/v) glycerol, 5% (v/v) β-mercaptoethanol, 0.04% (w/v) bromphenol blue] and incubated at 70 °C for 5 min. […] The membranes were incubated at 4 °C for 16 h with a primary anti-cleaved caspase 3 (p17) antibody at the dilution 1:1000 (Cell Signaling, Danvers, MA, USA; products No. 9664), and an Apoptosis WB Cocktail (Abcam, Cambridge, UK; product No. ab136812) at the dilution recommended by the provider to detect β-actin, cleaved poly-(ADP-ribose) polymerase (PARP) and pro-caspase 3. After washing in a TBST buffer, the secondary anti-rabbit IgG antibody (Sigma-Aldrich, product No. A0545) was diluted 1:2500 and applied to the membranes, which were then incubated for 1 h at the laboratory temperature (~22 °C). The amount of bound secondary antibody was determined using an ECL reagent (Bio-Rad, Hercules, CA, USA). Chemiluminescence was detected using a Syngene PXi4 chemiluminescence imaging system (Cambridge, UK).
A general note: A western blot detects proteins with antibodies after separation by electrophoresis.

The subject of test [2] is NF-κB/AP-1 in THP-1-XBlue-MD2-CD14 cells. Description: LPS-stimulated NF-κB/AP-1 activity, SEAP reporter. In kind it is cell-based, human. The conditions noted are these: complexes applied at 200 nM and 50 nM, 1 h pre-treatment, read 24 h after LPS. How it is done:
The activity of transcription factors NF-κB/AP-1 was evaluated using the THP-1-XBlue^TM-MD2-CD14 cell line [obtained from Invivogen (San Diego, CA, USA)], expressing an NF-κB/AP-1-inducible secreted embryonic alkaline phosphatase (SEAP) reporter gene, as was described previously. The complexes 1–5 were applied to the cells at the concentrations of 200 nM and 50 nM, pomiferin (at 200 nM), and a reference drug prednisone at 1 μM, respectively. Lipopolysaccharide (LPS) from E. coli 0111:B4 (Sigma-Aldrich) dissolved in PBS was used to trigger an inflammation-like reaction. The activity of the SEAP was determined by Quanti-Blue^TM reagent (Invivogen, San Diego, CA, USA) according to the manufacturer’s instructions 24 h after lipopolysaccharide stimulation. The activity of NF-κB/AP-1 was determined spectrophotometrically using the FLUOstar Omega microplate reader (BMG Labtech, Ortenberg, Germany) at 655 nm and compared with that of the vehicle.

For test [3], the system named is primary culture of human hepatocytes (Hep). In words: toxicity against primary culture of human hepatocytes. In kind it is cell-based. The conditions noted are these: tested range 0.1–100 μM.
The subject of test [4] is THP-1 human monocytic leukemia cell line. In words: relative cell viability, WST-1. Format: cell-based. Particulars: serum-free medium, 24 h, six independent experiments. How it is done:
The THP-1 human monocytic leukemia cell line was purchased from the European Collection of Cell Cultures (ECACC, Salisbury, UK). Cells were cultured in an RPMI 1640 medium containing stabilized 2 mM L-glutamine (Biosera, Nuaille, France) supplemented with the mixture of antibiotics [100 U/mL penicillin and […] (Biosera, Nuaille, France)], and 10% foetal bovine serum (FBS) (HyClone, Marlborough, MA, USA). The cells were kept in an incubator at 37 °C in an atmosphere of air containing 5% CO2 and 100% humidity.
The relative cell viability of floating monocytes THP-1 were determined after 24 h incubation in a serum-free medium with compounds 1–5 dissolved in N,N-dimethylformamide (DMF) at increasing concentrations (20–0.125 µM) by the cell proliferation reagent WST-1 (Roche, Basel, Switzerland) according to the manufacturer’s manual, as we described previously. The IC50 values were calculated from resultant viability curves by four-parameter logistic (4PL) analysis.
A general note: Formazan colour is commonly taken as a measure of viable cells.

Test [5] concerns cisplatin-resistant ovarian carcinoma (A2780R). In words: in vitro cytotoxicity, MTT assay. The conditions noted are these: mean ± SD, at least three independent experiments. In kind it is cell-based, human. The protocol: (§1) The testing was performed on the following human cancer cell lines: breast adenocarcinoma (MCF-7), osteosarcoma (HOS), lung adenocarcinoma (A549), prostate adenocarcinoma (PC-3), ovarian carcinoma (A2780), cisplatin-resistant ovarian carcinoma (A2780R) and colorectal adenocarcinoma (Caco-2) obtained from ATCC collection of cell lines and cultivated according to producer’s instructions.

The test system of test [6] is breast adenocarcinoma (MCF-7). In words: in vitro cytotoxicity, MTT assay. The conditions noted are these: mean ± SD, at least three independent experiments. In kind it is cell-based, human. The protocol: as §1
For test [7], the system named is ovarian carcinoma (A2780). In words: in vitro cytotoxicity, MTT assay. Format: cell-based, human. The conditions noted are these: mean ± SD, at least three independent experiments. The protocol: as §1
The subject of test [8] is prostate adenocarcinoma (PC-3). In words: in vitro cytotoxicity, MTT assay. The conditions noted are these: mean ± SD, at least three independent experiments. Format: cell-based, human. How it is done:
as §1

For test [9], the system named is lung adenocarcinoma (A549). In words: in vitro cytotoxicity, MTT assay. Format: cell-based, human. Particulars: mean ± SD, at least three independent experiments. How it is done: as §1
Another test deals with osteosarcoma (HOS). Description: in vitro cytotoxicity, MTT assay. In kind it is cell-based, human. Particulars: mean ± SD, at least three independent experiments.
In test [10] the test system is colorectal adenocarcinoma (Caco-2). Description: in vitro cytotoxicity, MTT assay. In kind it is cell-based, human. Particulars: mean ± SD, at least three independent experiments.
Another test has as its system DLD-1 colon carcinoma. The arrangement: method as in PMID 27936296. The conditions noted are these: 72 h incubation; cited from earlier work.
A further test relates to 518A2 melanoma cells. The arrangement: method as in PMID 23973682. Particulars: 72 h incubation; cited from earlier work.
Test [11] has as its system Panc-1 pancreas carcinoma cells. The arrangement: method as in PMID 27936296. Particulars: 72 h incubation; cited from earlier work.
In test [12] the test system is MCF-7/Topo breast adenocarcinoma cells. On the set-up: method as in PMID 27936296. The conditions noted are these: 72 h incubation; cited from earlier work.
The subject of test [13] is Ea.Hy 926 endothelial hybrid cells. On the set-up: method as in PMID 27936296. The conditions noted are these: read-out: IC50 Ea.Hy 926 healthy endothelial hybrid cells; cited from earlier work.
A further test deals with U-87 MG glioblastoma. The arrangement: method as in PMID 27936296. The conditions noted are these: 72 h incubation; cited from earlier work.
In test [14] the test system is KB-V1/Vbl cervix carcinoma cells. On the set-up: method as in PMID 27936296. Particulars: 72 h incubation; cited from earlier work.
For the next test, the system named is pUC19 plasmid DNA. Description: nuclease-like activity, plasmid DNA cleavage. In kind it is biochemical.

One may read the IC50 as the point on the concentration scale where inhibition reaches its midpoint. For `c1ccc(-c2ccccn2)nc1` [bipy, 2,2′-bipyridine], the half-maximal inhibitory concentration (IC50) with A2780 cell line was above 100 µM.
For `CC(C)=CCc1c2c(c3occ(-c4ccc(O)c(O)c4)c(=O)c3c1[O-])C=CC(C)(C)O2.CO.CO.O=[N+]([O-])[O-].[Cu+2].c1cnc2c(c1)ccc1cccnc12` [Complex 3, (3-(3,4-dihydroxyphenyl)-8,8-dimethyl-6-(3-methylbut-2-en-1-yl)-4H,8H-benzo[1,2-b:3,4-b′]dipyran-4-one-5-olato-κ^2O4:O5)(1,10-phenanthroline–κ^2N:N)copper(II) nitrate methanol disolvate], the “ROS production, long term” value with THP-1 cells was “highest pro-oxidant potential of all the complexes”. Besides, the “levels of pro-caspase 3 (pro-Casp-3)” value in [1] was “dramatically decreased”. The “proteolytically activated Casp-3 (verified by cleaved PARP-1)” value in test [1] (cisplatin 10 µM) is “detected”. Moreover, in [2], the “inhibition of LPS-stimulated NF-κB/AP-1 activation” value was “no influence on the activity”. For the same molecule, the IC50 is above 100 µM in test [3]; above 10 µM in test [4]; 2.9 ± 1.2 µM in [5]; 5.9 ± 0.6 µM in [6]; 5.8 ± 2.2 µM in [7]; 13 ± 1.4 µM in test [8]. Further, the IC50 in [9] stood at 3.5 ± 0.2 µM; in the test with osteosarcoma (HOS), 3.5 ± 0.1 µM; in test [10] it was 4.2 ± 1.9 µM.
For `O=c1c(-c2ccc(O)cc2)coc2cc(O)cc([O-])c12.O=c1c(-c2ccc(O)cc2)coc2cc(O)cc([O-])c12.[Cu+2]` [[Cu(L)2], bis[3-(4-hydroxyphenyl)-7-hydroxy-4H-benzopyran-4-one-5-olato-κO^2] copper(II)], the IC50 is 21.2 ± 1.8 µM in the test with DLD-1 colon carcinoma; 10.9 ± 1.4 µM with 518A2 melanoma cells; 16.9 ± 0.8 µM in test [11]; 15 ± 1.5 µM in [12]; 20.1 ± 0.7 µM in [13]; 30.2 ± 5 µM in the test with U-87 MG glioblastoma. Moreover, the IC50 in test [14] was 8 ± 0.2 µM.
As to `c1cnc2c(c1)ccc1cccnc12` [phen, 1,10-phenanthroline], the IC50 in the test on A2780 cell line was above 100 µM.
As for `CC(C)=CCc1c2c(c3occ(-c4ccc(O)c(O)c4)c(=O)c3c1[O-])C=CC(C)(C)O2.CO.CO.O=[N+]([O-])[O-].[Cu+2].c1ccc(-c2ccccn2)nc1` [Complex 1, (3-(3,4-dihydroxyphenyl)-8,8-dimethyl-6-(3-methylbut-2-en-1-yl)-4H,8H-benzo[1,2-b:3,4-b′]dipyran-4-one-5-olato-κ^2O4:O5)(2,2′-bipyridine–κ^2N:N)copper(II) nitrate methanol disolvate], the “ROS production, long term” value with THP-1 cells is “elevated the ROS levels similarly as pyocyanin”. Further, the “inhibition of LPS-stimulated NF-κB/AP-1 activation” value in test [2] is “able to inhibit”. The IC50 in test [3] was above 100 µM; in test [4], 4 ± 1.1 µM; in test [5], 5.6 ± 0.3 µM; in test [6], 23.8 ± 0.2 µM; in test [7] it was 12.1 ± 1.5 µM; in [8] it was 22.1 ± 1.9 µM. For the same molecule, the IC50 in test [9] came out at 20.8 ± 1.5 µM; with osteosarcoma (HOS), 21.5 ± 1.4 µM; in test [10], 13.7 ± 7.4 µM. Moreover, in the test with pUC19 plasmid DNA (10 µM, water-containing medium (10% DMF), 37 °C, 1 h), the “plasmid DNA nicked to OC-form” value is recorded as “ca. 30%”. The “DNA cleavage in the presence of ROS scavengers (KI, NaN3, DMSO)” value in the test with pUC19 plasmid DNA (0.66 mM H2O2, scavengers equimolar to complex) is “decreased by DMSO”.
